Activity calls are given as the source filed them. Cut-off read from the data, not from the text of the source: actives have a measured IC50 and inactives only a lower limit.
target: Envelope glycoprotein gp160 (Human immunodeficiency virus 1, UniProt Q6QLK5); assay: cell-free HIV fusion peptide-binding blockers – biochemical, uHTS, fluorescence dequenching, […] (AID 1986)
Sequence (Q6QLK5 whole entry, the tested form may be a part): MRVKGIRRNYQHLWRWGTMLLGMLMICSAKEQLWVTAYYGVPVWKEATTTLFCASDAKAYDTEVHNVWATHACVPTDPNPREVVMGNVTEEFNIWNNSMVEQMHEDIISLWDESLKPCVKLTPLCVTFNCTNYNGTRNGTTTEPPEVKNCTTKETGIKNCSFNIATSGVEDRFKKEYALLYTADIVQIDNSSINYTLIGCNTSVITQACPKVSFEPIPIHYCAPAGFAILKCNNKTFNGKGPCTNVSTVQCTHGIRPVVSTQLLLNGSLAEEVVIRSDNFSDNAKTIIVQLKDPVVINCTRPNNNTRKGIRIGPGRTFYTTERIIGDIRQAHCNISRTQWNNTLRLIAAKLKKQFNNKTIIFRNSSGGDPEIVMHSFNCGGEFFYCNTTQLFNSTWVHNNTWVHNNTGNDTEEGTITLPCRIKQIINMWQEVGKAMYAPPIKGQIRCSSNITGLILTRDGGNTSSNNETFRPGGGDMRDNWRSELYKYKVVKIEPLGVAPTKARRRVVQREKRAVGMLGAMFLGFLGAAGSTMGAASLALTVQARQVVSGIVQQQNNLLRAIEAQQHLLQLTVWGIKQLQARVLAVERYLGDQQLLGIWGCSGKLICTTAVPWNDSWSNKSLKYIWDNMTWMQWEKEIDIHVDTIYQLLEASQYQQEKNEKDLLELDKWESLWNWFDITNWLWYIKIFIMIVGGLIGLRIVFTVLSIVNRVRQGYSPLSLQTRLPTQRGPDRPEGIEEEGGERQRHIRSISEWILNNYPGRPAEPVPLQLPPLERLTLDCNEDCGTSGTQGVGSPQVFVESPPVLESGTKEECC

SMILES	IC50
CCS(=O)(=O)C1=NSC2=NC(=O)/C(=C\c3ccc(OS(=O)(=O)c4ccccc4)c(OC)c3)C(=N)N21	16.8 µM (active)
CCOc1ccc2nc(NC(=O)CSc3nc(O)c(C#N)c(-c4ccccc4)n3)sc2c1	11.1 µM (active)
O=C(NN1C(=O)/C(=C/c2ccc(O)cc2)SC1=S)c1ccccc1O	23.6 µM (active)
